In the supplement of paper PMC5908809:

Experiments:
[1] = system: IMC-1 (IL-2 20 ng/mL); test: drug sensitivity score (DSS) (DSS units); higher = more sensitive; extreme values may be limits of the assay; conditions: 72 h
[2] = system: normal primary NK cells, pool 3 (3 donors) (IL-2 2.5 ng/mL); test: as above; conditions: 72 h
[3] = system: YT (IL-2 2.5 ng/mL); test: as above; conditions: 72 h
[4] = system: NK-92 (IL-2 2.5 ng/mL); test: as above; conditions: 72 h
[5] = system: SNK-6 (IL-2 2.5 ng/mL); test: as above; conditions: 72 h
[6] = system: NK-YS (IL-2 2.5 ng/mL); test: as above; conditions: 72 h
[7] = system: NKL (IL-2 2.5 ng/mL); test: as above; conditions: 72 h
[8] = system: DERL-7 (IL-2 2.5 ng/mL); test: as above; conditions: 72 h
[9] = system: normal primary NK cells, pool 1 (3 donors) (IL-2 2.5 ng/mL); test: as above; conditions: 72 h
[10] = system: KHYG-1 (IL-2 2.5 ng/mL); test: as above; conditions: 72 h
[11] = system: normal primary NK cells, pool 1 (3 donors), resting (IL-2 0 ng/mL); test: as above; conditions: 72 h
[12] = system: KAI3 (IL-2 2.5 ng/mL); test: as above; conditions: 72 h
[13] = system: normal primary NK cells, pool 2 (3 donors) (IL-2 2.5 ng/mL); test: as above; conditions: 72 h
[14] = system: normal NK cells expanded with K562-aAPC; test: percent inhibition of viability; higher = more inhibition; conditions: 72 h, IL-2 2.5 ng/mL
Procedure: (§1)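 Drug sensitivity and resistance testing on K562-aAPC-expanded normal NK cells: 5 concentrations (10-fold steps over a 10,000-fold range), 72 h at 37 °C, viability by CellTiter-Glo normalised to DMSO and benzethonium chloride controls; DSS from the fitted curve.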

[15] = system: IMC-1 (IL-2 20 ng/mL); test: as above; conditions: 72 h
[16] = system: normal primary NK cells, pool 3 (3 donors) (IL-2 2.5 ng/mL); test: as above; conditions: 72 h
[17] = system: YT (IL-2 2.5 ng/mL); test: as above; conditions: 72 h
[18] = system: NK-92 (IL-2 2.5 ng/mL); test: as above; conditions: 72 h
[19] = system: SNK-6 (IL-2 2.5 ng/mL); test: as above; conditions: 72 h
[20] = system: NK-YS (IL-2 2.5 ng/mL); test: as above; conditions: 72 h
[21] = system: NKL (IL-2 2.5 ng/mL); test: as above; conditions: 72 h
[22] = system: DERL-7 (IL-2 2.5 ng/mL); test: as above; conditions: 72 h
[23] = system: normal primary NK cells, pool 1 (3 donors) (IL-2 2.5 ng/mL); test: as above; conditions: 72 h
[24] = system: KHYG-1 (IL-2 2.5 ng/mL); test: as above; conditions: 72 h
[25] = system: normal primary NK cells, pool 1 (3 donors), resting (IL-2 0 ng/mL); test: as above; conditions: 72 h
[26] = system: KAI3 (IL-2 2.5 ng/mL); test: as above; conditions: 72 h
[27] = system: normal primary NK cells, pool 2 (3 donors) (IL-2 2.5 ng/mL); test: as above; conditions: 72 h
[28] = system: normal NK cells expanded with K562-aAPC; test: drug sensitivity score (DSS) (DSS units); higher = more sensitive; extreme values may be limits of the assay; conditions: 72 h; IL-2 2.5 ng/mL
Procedure: as §1

O=C(O)c1ccc(O)c2ncccc12 [IOX-1] (max concentration tested 100000 nM)
Conditions	drug sensitivity score
[1]	4.66
[2]	0.69
[3]	5.1
[4]	5.53
[5]	7.64
[6]	4.95
[7]	5.52
[8]	4.57
[9]	3.07
[10]	5.99
[11]	5.03
[12]	8.02
[13]	0.36
[28]	1.59

percent inhibition of viability [%]
Conditions	10 nM	100 nM	1000 nM	10000 nM	100000 nM
[14]	2.28	-1.61	-3.75	-2.77	37.3
[15]	-3.09	-5.78	-3.15	-12.9	98.3
[16]	-7.55	-4.61	-5.18	1.2	19.5
[17]	-3.65	-2.89	-3.48	-1.62	93.9
[18]	-6.93	3.17	-9.38	5.58	84.7
[19]	5.81	6.03	15.1	13.8	96.1
[20]	-2.09	1.71	-3.7	-0.87	90
[21]	1.44	-6.7	-0.16	3.16	91.7
[22]	3.2	6.07	1.59	7.49	60.9
[23]	-3.62	-13.1	0.64	8.14	36.8
[24]	-4.24	1.11	-3.63	4.25	97.2
[25]	-3.86	-11	-13.3	21.7	44.1
[26]	-3.64	-1.76	6.25	18.8	90.3
[27]	-7.65	2.85	-9.5	-2.84	18.6

COc1cccc2c1c(O)c(C(=O)N(C)c1ccc(C(F)(F)F)cc1)c(=O)n2C [Tasquinimod] (max concentration tested 10000 nM)
Conditions	drug sensitivity score
[1]	1.63
[2]	0
[3]	0.05
[4]	0.25
[5]	1.33
[6]	0.88
[7]	0
[8]	0
[9]	0
[10]	0.64
[11]	0
[12]	0.42
[13]	0
[28]	0.52

percent inhibition of viability [%]
Conditions	1 nM	10 nM	100 nM	1000 nM	10000 nM
[14]	-7.07	0.32	1.21	7.82	14.8
[15]	-0.7	-0.26	6.03	4.89	24.9
[16]	-20.6	-6.75	-1.92	-3.86	-2.57
[17]	-0.31	1.63	5.58	-0.55	12.3
[18]	-9.77	4.66	9.08	0.57	14.6
[19]	-5.13	6.31	6.1	14.1	15.8
[20]	0.96	4.34	12.7	5.52	18.5
[21]	-7.64	-0.44	4.18	-3.6	2.35
[22]	-3.57	-2.07	-7.69	-10.8	-11.1
[23]	3.81	-6.54	6.5	-11.9	5.24
[24]	-2.03	0.19	16.6	3.8	15.4
[25]	8.18	-8.58	-1.08	-15.9	-8.64
[26]	-4.26	7.35	5.88	0.64	16.9
[27]	-8.15	-6.65	-1.09	-7.24	-2.69

FC(F)(F)c1ccc(/C=C/c2nc(COc3ccc(CCCCn4ccnn4)cc3)co2)cc1 [Mubritinib] (max concentration tested 1000 nM)
Conditions	drug sensitivity score
[1]	20.6
[2]	4.94
[3]	11
[4]	6.23
[5]	0
[6]	13
[7]	8.04
[8]	4.52
[9]	11.5
[10]	9.82
[11]	14.7
[12]	5.59
[13]	7.39
[28]	0.75

percent inhibition of viability [%]
Conditions	0.1 nM	1 nM	10 nM	100 nM	1000 nM
[14]	-6.01	-7.06	-7.66	9.52	14.1
[15]	-1.73	-4.86	37.2	86.6	31.2
[16]	-9.77	-2.9	15.1	21.5	34
[17]	-2.71	-3.53	24	44.2	39.6
[18]	-8.31	-12.6	7.62	30.8	42.3
[19]	-13.7	-12.2	4.91	4.95	7.75
[20]	-3.84	-4.99	8.6	64	81.2
[21]	-16.4	-8.04	7.63	38.2	57.6
[22]	1.75	0.44	5.74	24.8	27
[23]	-7.65	0.13	21.1	48.2	50.2
[24]	-2.15	-7.85	17	42.5	66.5
[25]	10	1.44	28.5	61	64.8
[26]	3.33	-9.68	-0.43	26.5	45.4
[27]	-5.29	-7.28	16.6	27.6	34.2

CO[C@H]1C[C@@H]2CC[C@@H](C)[C@@](O)(O2)C(=O)C(=O)N2CCCC[C@H]2C(=O)O[C@H]([C@H](C)C[C@@H]2CC[C@@H](OC(=O)C(C)(CO)CO)[C@H](OC)C2)CC(=O)[C@H](C)/C=C(\C)[C@@H](O)[C@@H](OC)C(=O)[C@H](C)C[C@H](C)/C=C/C=C/C=C/1C [Temsirolimus] (max concentration tested 100 nM)
Conditions	drug sensitivity score
[1]	0
[2]	0.84
[3]	14.4
[4]	7.04
[5]	17.2
[6]	17.4
[7]	21.6
[8]	15.1
[9]	0.28
[10]	13.4
[11]	0.07
[12]	14.2
[13]	3.24
[28]	1.25

percent inhibition of viability [%]
Conditions	0.01 nM	0.1 nM	1 nM	10 nM	100 nM
[14]	0.06	1.82	7.35	7.61	23.3
[15]	1.04	2.24	-25.1	-30.5	-23.9
[16]	-9.23	-18.3	1.68	12.1	12.8
[17]	0.8	5.67	35.9	50.6	55.3
[18]	-7.3	7.2	12.8	33.5	36.9
[19]	4.31	14	45.6	56	55.2
[20]	-1.82	16.2	44.5	54.4	59
[21]	5.4	32.6	52	59.1	58.7
[22]	0.65	5.41	38.2	53.8	56.5
[23]	-5.13	4.99	6.83	10.7	11.2
[24]	-0.71	3.41	21.7	58.9	48.8
[25]	-13.5	-0.02	6.4	10.2	4.95
[26]	-1.9	13.1	35.1	48.4	54.7
[27]	-13.6	-11.5	7.96	18.8	14.9

CC1=C(/C=C/C(C)=C/C=C/C(C)=C/C(=O)O)C(C)(C)CCC1 [Tretinoin] (max concentration tested 10000 nM)
Conditions	drug sensitivity score
[1]	0
[2]	0
[3]	0
[4]	0
[5]	0
[6]	2.28
[7]	4.28
[8]	0
[9]	0
[10]	4.32
[11]	3.02
[12]	0.68
[13]	0
[28]	0

percent inhibition of viability [%]
Conditions	1 nM	10 nM	100 nM	1000 nM	10000 nM
[14]	-4.58	-6.04	-10.1	-14.2	-11.4
[15]	-5.65	-8.65	-8.92	-15.6	-11.9
[16]	-4.65	-2.78	-10.4	-7.74	-8.57
[17]	-1.46	-2.61	-3.8	-1.99	3.09
[18]	-0.77	-12.9	-9.35	0.15	-0.14
[19]	-9.38	11.7	19.6	-4.95	10.5
[20]	-3.42	-0.23	9.86	11.1	28.9
[21]	-12.8	-0.36	-1.84	17.5	39.7
[22]	0.02	-9.97	-17.2	-1.93	1.55
[23]	-4.29	-17	-11.3	-4.32	10.6
[24]	-3.1	-0.61	11.5	20.8	33
[25]	-8.15	-5.96	-18.7	18.4	26.4
[26]	-2.48	-3.65	-1.2	3.75	16
[27]	-8.71	-3.05	-10.2	-13.1	1.08
